# Patent US11485742B2, “2-azaspiro[3.4]octane derivatives as M4 agonists” (NOVARTIS AG, priority 2019, dated 2022)
# What was measured:
# Format in all cases: cell-based
# [1] = molecular target: T1, human cloned CHRM2 receptor (Homo sapiens, UniProt P08172); experiment: CHRM2 Ca++ Flux Assay (M2_CHO cells, agonist mode); settings: M2 CHO cells; for EC50: agonist mode, geometric mean if tested more than once, read-out: M2 FDSS EC50; for Emax / M2 FDSS PA %: Percent Activity (PA) measured to EC100 of Carbachol; for Emax: read-out: M2 FDSS PA %
# T1 construct: expressed in transfected cells; host or cells: CHO-K1 (M2_CHO)
# T1 sequence (P08172 1-466): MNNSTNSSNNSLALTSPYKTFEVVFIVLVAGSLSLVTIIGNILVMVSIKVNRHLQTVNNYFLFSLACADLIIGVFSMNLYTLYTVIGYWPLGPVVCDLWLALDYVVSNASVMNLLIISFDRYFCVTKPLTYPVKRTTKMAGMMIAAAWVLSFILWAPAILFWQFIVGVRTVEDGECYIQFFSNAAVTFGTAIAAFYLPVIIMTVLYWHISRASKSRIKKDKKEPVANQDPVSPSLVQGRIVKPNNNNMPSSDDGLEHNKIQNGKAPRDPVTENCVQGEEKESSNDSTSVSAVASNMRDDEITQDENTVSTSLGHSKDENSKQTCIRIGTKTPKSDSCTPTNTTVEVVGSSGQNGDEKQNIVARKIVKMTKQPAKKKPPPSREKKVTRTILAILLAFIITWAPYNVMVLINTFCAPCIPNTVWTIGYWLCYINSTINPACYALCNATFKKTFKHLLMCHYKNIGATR
# Protocol: (§1) The above examples were characterized by measuring the intracellular mobilization of Ca^++ ions caused by signaling events mediated by the receptor. The Intra-cellular Calcium flux levels were captured by the highly sensitive Ca^++ indicator, Calcium Assay Kit (BD Biosciences; Catalog Number 640178. The fluorescent activity from all receptors were monitored by the fluorescent imager, FDSS 7000EX (Hamamatsu) over a span of 3 minutes. The change in Calcium flux was readily captured upon activation with the muscarinic orthosteric agonist, Carbachol.
# (§2) CHO-K1 cells stably expressing the human cloned CHRM2 receptor (M2_CHO cells) were grown and maintained in a monolayer culture with F12/HAM (Life Technologies) supplemented with 10% Fetal Bovine Serum, 1×Pen-Strep, and 0.4 mg/mL Geneticin in a humidified atmosphere (5% CO2) at 37° C. The cultures were grown to 80-90% confluency in T150 flasks (Corning) and washed with 1×DPBS and lifted with 0.05% Trypsin (Life Technologies). The cells were then spun (1K rpm, 3 minutes) and frozen using Recovery Cell Culture Freezing Media (Gibco Technologies). Cells were stored in liquid nitrogen and thawed a day before the assay.
# Prior to the day of the assay, stable M2 CHO cells were thawed and plated on Greiner 384 well TC treated plate at a density of 12K cells/well and kept overnight in a humidified atmosphere (5% CO2) at 37° C. The following day, the cells were loaded with Ca^++ dye (BD Biosciences) using Loading Buffer (HBSS +Ca/+Mg, 20 mM HEPES, 2.5 mM Probenecid) and placed back in cell incubator for a minimum of 1 hour and maximum of 2 hours. After incubation, the dye was replaced with Assay Buffer (HBSS −Ca/−Mg, 20 mM HEPES, 2.5 mM Probenecid) supplemented with 20 μM ATP (Sigma Aldrich) and kept at room temperature for 60 minutes prior before running on cell imager. The FDSS 7000EX (Hamamatsu) was used to acquire Ca^++ traces from cells in response to compound treatment and the data was used to generate dose response curves in agonist mode. All compounds were serially diluted in DMSO then prepared in Assay Buffer for Ca^−+ flux studies. The dose response curves were generated from the average of triplicate wells obtained from each data point and used a non-linear regression of four parameter dose response algorithm. The Percent Activity (PA) was measured to EC100 of Carbachol.
# (§3) If an Example was tested more than once in an assay, then the values below represent the geometric mean of the results from each independent experiment.
# [2] = molecular target: T2, human cloned CHRM3 receptor (Homo sapiens, UniProt P20309); experiment: CHRM3 Ca++ Flux Assay (M3_CHO cells, agonist mode); settings: for Emax / M3 FDSS PA %: Percent Activity (PA) measured to EC100 of Carbachol; for Emax: read-out: M3 FDSS PA %; for EC50: agonist mode, geometric mean if tested more than once, read-out: M3 FDSS EC50
# T2 construct: expressed in transfected cells; host or cells: CHO-K1 (M3_CHO)
# T2 sequence (P20309 whole entry): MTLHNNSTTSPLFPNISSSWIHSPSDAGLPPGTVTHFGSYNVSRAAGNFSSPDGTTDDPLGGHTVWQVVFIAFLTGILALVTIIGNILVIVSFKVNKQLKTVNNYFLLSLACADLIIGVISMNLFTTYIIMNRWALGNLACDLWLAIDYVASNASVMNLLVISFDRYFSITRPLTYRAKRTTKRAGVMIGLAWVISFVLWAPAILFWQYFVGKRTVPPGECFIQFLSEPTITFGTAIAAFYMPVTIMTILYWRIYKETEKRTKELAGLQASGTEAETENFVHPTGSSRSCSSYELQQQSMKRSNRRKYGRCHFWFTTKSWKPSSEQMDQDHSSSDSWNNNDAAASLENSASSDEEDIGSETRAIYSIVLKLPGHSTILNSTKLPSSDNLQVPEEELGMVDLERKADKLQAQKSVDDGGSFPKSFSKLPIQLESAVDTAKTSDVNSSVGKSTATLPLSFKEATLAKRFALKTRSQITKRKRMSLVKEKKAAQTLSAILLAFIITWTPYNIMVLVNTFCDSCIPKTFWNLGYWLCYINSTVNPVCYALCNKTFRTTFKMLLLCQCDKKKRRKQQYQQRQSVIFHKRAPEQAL
# Protocol: as §1
# as §2, with “CHRM3” for “CHRM2”, “(M3_CHO” for “(M2_CHO”, “IX Pen-Strep,” for “1×Pen-Strep,”, “assay. A similar procedure was used for cells stably expressing the human cloned CHRM5 receptor (M5_CHO).” for “assay.”
# (§4) Prior to the day of the assay, stable M3_CHO or M5_CHO cells were thawed and plated on Greiner 384 well black TC treated plates at 12K cells/well in F12/DMEM supplemented with 10% FBS (Hyclone) and kept overnight in a humidified atmosphere (5% CO2) at 37° C. The next day, cells were loaded with Ca^++ dye (BD Biosciences) using Loading Buffer (HBSS +Ca/+Mg, 20 mM HEPES, 2.5 mM Probenecid) and placed back in cell incubator for a minimum of 1 hour. After incubation, the dye was replaced with Assay Buffer (HBSS −Ca/−Mg, 20 mM HEPES, 2.5 mM Probenecid) and kept at room temperature in the dark before running on cell imager. The FDSS 7000EX (Hamamatsu) was used to acquire Ca^+− traces from cells treated with 11 point dose response of compounds in triplicate in order to generate dose response curves in agonist mode. All compounds were serially diluted in DMSO then prepared in Assay Buffer for Ca^++ flux studies. The dose response curves were generated from the average of triplicate wells obtained from each data point and used a non-linear regression of four parameter dose response algorithm. The Percent Activity (PA) was measured to EC100 of Carbachol.
# as §3
# [3] = molecular target: T3, human cloned CHRM5 receptor (Homo sapiens, UniProt P08912); experiment: CHRM5 Ca++ Flux Assay (M5_CHO cells, agonist mode); settings: for Emax / M5 FDSS PA %: Percent Activity (PA) measured to EC100 of Carbachol; for Emax: read-out: M5 FDSS PA %; for EC50: agonist mode, geometric mean if tested more than once, read-out: M5 FDSS EC50
# T3 construct: expressed in transfected cells; host or cells: CHO (M5_CHO)
# T3 sequence (P08912 1-532): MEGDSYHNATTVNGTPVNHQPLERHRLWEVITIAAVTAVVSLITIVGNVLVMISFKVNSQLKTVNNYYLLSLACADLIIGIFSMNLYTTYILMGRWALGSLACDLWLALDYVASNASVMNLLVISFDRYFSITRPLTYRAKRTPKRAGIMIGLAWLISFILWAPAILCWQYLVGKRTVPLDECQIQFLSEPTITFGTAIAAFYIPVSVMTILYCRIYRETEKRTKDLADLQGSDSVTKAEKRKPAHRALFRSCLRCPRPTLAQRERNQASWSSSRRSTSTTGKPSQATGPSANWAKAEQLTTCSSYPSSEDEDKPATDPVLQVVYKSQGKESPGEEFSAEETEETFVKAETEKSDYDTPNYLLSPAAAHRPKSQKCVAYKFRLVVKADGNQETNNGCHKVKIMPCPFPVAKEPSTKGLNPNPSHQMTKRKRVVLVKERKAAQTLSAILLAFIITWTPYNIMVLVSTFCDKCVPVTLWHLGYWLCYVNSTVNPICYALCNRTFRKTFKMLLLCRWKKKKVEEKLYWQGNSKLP
# Protocol: as §1
# as §2, with “CHRM3” for “CHRM2”, “(M3_CHO” for “(M2_CHO”, “IX Pen-Strep,” for “1×Pen-Strep,”, “assay. A similar procedure was used for cells stably expressing the human cloned CHRM5 receptor (M5_CHO).” for “assay.”
# as §4, §3
EC50 [1] [µM],Emax [1] [%],Emax [2] [%],EC50 [2] [µM],Emax [3] [%],EC50 [3] [µM],M2 FDSS PA % [1] [%],M3 FDSS PA % [2] [%],M5 FDSS PA % [3] [%],Compound
> 25,17,0,> 25,0,> 25,,,,"Fc1ccc(O[C@@H]2CCOC2)c(C2CCN([C@@H]3COC4(C3)CN(c3ncco3)C4)CC2)c1 [Example 4D, (S)-7-(4-(5-fluoro-2-(((R)-tetrahydrofuran-3-yl)oxy)phenyl)piperidin-1-yl)-2-(oxazol-2-yl)-5-oxa-2-azaspiro[3.4]octane]"
> 25,0,0,> 25,0,> 25,,,,"COc1ccccc1C1CCN([C@@H]2COC3(C2)CN(c2ncco2)C3)CC1 [Example 4N, (S)-7-(4-(2-methoxyphenyl)piperidin-1-yl)-2-(oxazol-2-yl)-5-oxa-2-azaspiro[3.4]octane]"
2.46,,,10.7,,> 25,30,20,0,"O[C@H]1CC[C@@H](c2ccc(F)cc2C2CCN([C@@H]3COC4(C3)CN(c3nnco3)C4)CC2)CC1 (single isomer, unassigned) [Example 3H, (1R,4s)-4-(2-(1-((S)-2-(1,3,4-oxadiazol-2-yl)-5-oxa-2-azaspiro[3.4]octan-7-yl)piperidin-4-yl)-4-fluorophenyl)cyclohexan-1-ol or (1S,4r)-4-(2-(1-((S)-2-(1,3,4-oxadiazol-2-yl)-5-oxa-2-azaspiro[3.4]octan-7-yl)piperidin-4-yl)-4-fluorophenyl)cyclohexan-1-ol]"
0.545,43,0,> 25,0,> 25,,,,"Fc1ccc(OC[C@@H]2CCOC2)c(C2CCN([C@@H]3COC4(C3)CN(c3nncs3)C4)CC2)c1 [Example 5I, (S)-7-(4-(5-fluoro-2-(((R)-tetrahydrofuran-3-yl)methoxy)phenyl)piperidin-1-yl)-2-(1,3,4-thiadiazol-2-yl)-5-oxa-2-azaspiro[3.4]octane]"

# More lines, now with the values behind:
Compound,EC50 [1] [µM],Emax [1] [%],Emax [2] [%],EC50 [2] [µM],Emax [3] [%],EC50 [3] [µM],M2 FDSS PA % [1] [%],M3 FDSS PA % [2] [%],M5 FDSS PA % [3] [%]
"Fc1ccc(O[C@@H]2CCOC2)c(C2CCN([C@@H]3COC4(C3)CN(c3nnco3)C4)CC2)c1 [Example 1D, (S)-7-(4-(5-fluoro-2-(((R)-tetrahydrofuran-3-yl)oxy)phenyl)piperidin-1-yl)-2-(1,3,4-oxadiazol-2-yl)-5-oxa-2-azaspiro[3.4]octane]",0.607,50,0,> 25,0,> 25,,,
"CC(C)(O)COc1ccc(F)cc1C1CCN([C@@H]2COC3(C2)CN(c2nncs2)C3)CC1 [Example 5U, (S)-1-(2-(1-(2-(1,3,4-thiadiazol-2-yl)-5-oxa-2-azaspiro[3.4]octan-7-yl)piperidin-4-yl)-4-fluorophenoxy)-2-methylpropan-2-ol]",0.483,17,0,> 25,0,> 25,,,
"c1ccc(C2CCN([C@@H]3COC4(C3)CN(c3ncco3)C4)CC2)c(OC2CC3(COC3)C2)c1 [Example 4M, (S)-7-(4-(2-((2-oxaspiro[3.3]heptan-6-yl)oxy)phenyl)piperidin-1-yl)-2-(oxazol-2-yl)-5-oxa-2-azaspiro[3.4]octane]",> 25,0,0,> 25,0,> 25,,,
"COc1cc(F)ccc1C1CCN([C@@H]2COC3(C2)CN(c2nncs2)C3)CC1 [Example 5T, (S)-7-(4-(4-fluoro-2-methoxyphenyl)piperidin-1-yl)-2-(1,3,4-thiadiazol-2-yl)-5-oxa-2-azaspiro[3.4]octane]",20,35,0,> 25,0,> 25,,,
"CC(C)(O)[C@H]1C[C@H](Oc2ccc(F)cc2C2CCN([C@@H]3COC4(C3)CN(c3nnco3)C4)CC2)C1 (single isomer, unassigned) [Example 2V, 2-((1S,3r)-3-(2-(1-((S)-2-(1,3,4-oxadiazol-2-yl)-5-oxa-2-azaspiro[3.4]octan-7-yl)piperidin-4-yl)-4-fluorophenoxy)cyclobutyl)propan-2-ol or 2-((1R,3s)-3-(2-(1-((S)-2-(1,3,4-oxadiazol-2-yl)-5-oxa-2-azaspiro[3.4]octan-7-yl)piperidin-4-yl)-4-fluorophenoxy)cyclobutyl)propan-2-ol]",1.08,,,> 25,,> 25,28,0,0
"Fc1ccc(OC2CCOCC2)c(C2CCN([C@@H]3COC4(C3)CN(c3nnco3)C4)CC2)c1 [Example 1G, (S)-7-(4-(5-fluoro-2-((tetrahydro-2H-pyran-4-yl)oxy)phenyl)piperidin-1-yl)-2-(1,3,4-oxadiazol-2-yl)-5-oxa-2-azaspiro[3.4]octane]",1.25,35,0,> 25,0,> 25,,,
